The series is described as follows: Plasma levels of eprinomectin in cattle after topical pour-on administration (HPLC with fluorescence detection). The following applies: for Plasma concentration of eprinomectin: 0.5 mg/kg bodyweight, individual animals. The method, then:
Twenty beef cattle of mixed gender and aged approximately between 10-20 months at the time of selection were used to determine the levels of eprinomectin in plasma following topical administration of the composition set forth in Table 1 below at a dose rate of 0.5mg/kg of eprinomectin.
The composition was administered along the midline of the back in a narrow strip between the withers and the tailhead using 60 ml syringes graduated to 1 ml. […] Blood samples were collected from each animal by venipuncture from the jugular vein using suitably labelled 9ml heparinised vacutainers. Following collection, samples were placed on ice protected from light under black cover prior to centrifugation. After centrifugation at 4500 revolutions per minute (RPM) for 5 minutes, the plasma was subsampled into 3 amber cryovials (-1ml plasma/cryovial). Plasma samples were stored at <-20°C until assayed. All samples were assayed for the determination of eprinomectin content, measured as eprinomectin B 1 a (hereafter referred to as eprinomectin) by HPLC.

Where [1] appears, read: bovine, in vivo, topical or ocular, 0.5 mg/kg.

For orientation: AUC means concentration integrated over time. Low values mean less exposure, high ones more exposure. One may read the Cmax as the peak of the concentration-time curve. Broadly, the Tmax is the time from dosing to the highest level.

“And” between values parts separate entries of the source, which are not always exact repeats. Equal entries are not always repeated.

`CC[C@H](C)[C@H]1O[C@]2(C=C[C@@H]1C)C[C@@H]1C[C@@H](C/C=C(\C)[C@@H](O[C@H]3C[C@H](OC)[C@@H](O[C@H]4C[C@H](OC)[C@H](NC(C)=O)[C@H](C)O4)[C@H](C)O3)[C@@H](C)/C=C/C=C3\CO[C@@H]4[C@H](O)C(C)=C[C@@H](C(=O)O1)[C@]34O)O2` [eprinomectin]: the AUC under setting [1] is 7.84 ± 2.7 µg·h/mL. The compound also yielded a Cmax under setting [1] of 0.0455 ± 0.0184 µg/mL. The Tmax under setting [1] came to 96 h. The same compound displayed a concentration at 24 h (bovine, in vivo, topical or ocular, 0.5 mg/kg, mean plasma concentrations ± SD, cattle, topical, 24 hours, mean of all animals) of 0.0143 ± 0.00509 µg/mL. The compound also had a concentration at 240 h (bovine, in vivo, topical or ocular, 0.5 mg/kg, mean plasma concentrations, cattle, topical, 240 hours post administration, mean ± SD) of 0.015 ± 0.00669 µg/mL. In addition, the concentration at 408 h (bovine, in vivo, topical or ocular, 0.5 mg/kg, mean plasma concentrations, cattle, topical, 408 hours, mean ± SD) was 0.0029 ± 0.00115 µg/mL. Further, the “Plasma concentration of eprinomectin” value was <0.001 µg/mL (cattle, topical, time point 0 hrs (pre-treatment)); 0.0176 µg/mL and 0.0169 µg/mL and 0.0202 µg/mL and 0.0102 µg/mL and 0.0146 µg/mL and 0.00661 µg/mL and 0.00598 µg/mL (cattle, topical, time point 24 hrs, 0.5 mg/kg, 1440 min); 0.0247 µg/mL and 0.0367 µg/mL and 0.0277 µg/mL and 0.0235 µg/mL and 0.0267 µg/mL and 0.0127 µg/mL and 0.00829 µg/mL (cattle, topical, time point 48 hrs, 0.5 mg/kg, 2880 min); 0.0303 µg/mL and 0.0498 µg/mL and 0.0301 µg/mL and 0.0391 µg/mL and 0.0369 µg/mL and 0.0174 µg/mL and 0.0135 µg/mL (cattle, topical, time point 72 hrs, 0.5 mg/kg, 4320 min); 0.0322 µg/mL and 0.0569 µg/mL and 0.0361 µg/mL and 0.0385 µg/mL and 0.0453 µg/mL and 0.0199 µg/mL (cattle, topical, time point 96 hrs, 0.5 mg/kg, 5760 min); 0.0248 µg/mL and 0.0765 µg/mL and 0.027 µg/mL and 0.0338 µg/mL and 0.0447 µg/mL and 0.0252 µg/mL (cattle, topical, time point 120 hrs, 0.5 mg/kg, 7200 min). Also, the “Plasma concentration of eprinomectin” value by setting is: (cattle, topical, time point 144 hrs, 0.5 mg/kg, 8640 min) 0.0205 µg/mL and 0.0717 µg/mL and 0.0245 µg/mL and 0.0406 µg/mL and 0.0447 µg/mL and 0.0283 µg/mL; (cattle, topical, time point 192 hrs, 0.5 mg/kg, 11520 min) 0.0108 µg/mL and 0.0441 µg/mL and 0.0158 µg/mL and 0.0311 µg/mL and 0.0381 µg/mL and 0.0216 µg/mL; (cattle, topical, time point 216 hrs, 0.5 mg/kg, 12960 min) 0.00941 µg/mL and 0.0311 µg/mL and 0.0134 µg/mL and 0.0317 µg/mL and 0.0312 µg/mL and 0.0168 µg/mL and 0.0144 µg/mL; (cattle, topical, time point 240 hrs, 0.5 mg/kg, 14400 min) 0.00712 µg/mL and 0.0217 µg/mL and 0.0103 µg/mL and 0.0292 µg/mL and 0.0243 µg/mL and 0.0133 µg/mL and 0.0112 µg/mL; (cattle, topical, time point 312 hrs, 0.5 mg/kg, 18720 min) 0.00414 µg/mL and 0.0107 µg/mL and 0.00453 µg/mL and 0.0145 µg/mL and 0.0103 µg/mL and 0.00849 µg/mL and 0.00376 µg/mL; (cattle, topical, time point 336 hrs, 0.5 mg/kg, 20160 min) 0.00267 µg/mL and 0.00698 µg/mL and 0.00327 µg/mL and 0.0108 µg/mL and 0.00874 µg/mL and 0.00794 µg/mL and 0.00394 µg/mL. The “Plasma concentration of eprinomectin” value runs as follows: (cattle, topical, time point 360 hrs, 0.5 mg/kg, 21600 min) 0.0019 µg/mL and 0.00546 µg/mL and 0.00221 µg/mL and 0.00823 µg/mL and 0.00719 µg/mL and 0.00554 µg/mL and 0.00337 µg/mL; (cattle, topical, time point 408 hrs, 0.5 mg/kg, 24480 min) 0.00145 µg/mL and 0.00279 µg/mL and 0.00128 µg/mL and 0.00489 µg/mL and 0.00457 µg/mL and 0.00406 µg/mL and 0.00213 µg/mL.

Values taken from patent EP2844225B1, “AVERMECTIN POUR-ON FORMULATION WITH REDUCED WITHDRAWAL TIME” (Norbrook Laboratories Limited, priority 2012, dated 2013).
